Source: ChEMBL document CHEMBL5723379, “Affinity On-target Cellular Literature for EUbOPEN Chemogenomic Library” (2024)
One block for each compound: values may come before it.

What was measured:
[1] = molecular target: T1, Sodium-dependent neutral amino acid transporter B(0)AT1 (Homo sapiens, UniProt Q695T7); experiment: Affinity On-target Cellular interaction: (Stable isotope uptake assay, MDCK cells) EUB0002537a SLC6A19; type: functional, cell-based; parameters: mode of action Inhibitor, recommended concentration 1 uM
[2] = molecular target: T1, Sodium-dependent neutral amino acid transporter B(0)AT1; experiment: Affinity On-target Cellular interaction: (Fluorescence imaging plate reader (FLIPR) membrane potential (FMP) assay, MDCK cells) EUB0002537a SLC6A19; type: functional, cell-based; parameters: mode of action Inhibitor, recommended concentration 1 uM
[3] = molecular target: Triacylglycerol hydrolase DDHD2 (Homo sapiens, UniProt O94830); experiment: Affinity On-target Cellular interaction: (Inhibition of DDHD2 in HEK293T cells measured by competitive activity-based protein profiling) EUB0002612a DDHD2; type: functional, cell-based, HEK-293T; parameters: mode of action Inhibitor, recommended concentration 1 uM
[4] = molecular target: T2, Nuclear receptor ROR-beta (Homo sapiens, UniProt Q92753); experiment: Affinity On-target Cellular interaction: (Reporter gene assay (HEK293T cells)) EUB0001161a RORB; type: functional, cell-based, HEK-293T; parameters: mode of action Antagonist, recommended concentration 10 uM
T2 sequence (Q92753 whole entry): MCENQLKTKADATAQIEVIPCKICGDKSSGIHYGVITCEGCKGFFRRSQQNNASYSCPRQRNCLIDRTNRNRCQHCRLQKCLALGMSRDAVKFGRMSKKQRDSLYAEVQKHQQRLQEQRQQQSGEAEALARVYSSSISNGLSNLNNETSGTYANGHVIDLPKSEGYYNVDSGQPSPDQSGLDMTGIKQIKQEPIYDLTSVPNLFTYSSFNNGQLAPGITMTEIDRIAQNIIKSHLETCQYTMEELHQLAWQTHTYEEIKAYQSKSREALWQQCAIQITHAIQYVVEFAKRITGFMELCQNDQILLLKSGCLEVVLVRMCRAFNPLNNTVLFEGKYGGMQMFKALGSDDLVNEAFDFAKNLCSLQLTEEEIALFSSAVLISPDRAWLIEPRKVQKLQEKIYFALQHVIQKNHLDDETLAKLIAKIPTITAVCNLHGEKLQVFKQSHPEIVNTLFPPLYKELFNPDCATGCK

[5] = molecular target: Sodium/glucose cotransporter 2 (Homo sapiens, UniProt P31639); experiment: Affinity On-target Cellular interaction: (AMG uptake assay in presence of 25% human plasma, 293.ETN cells) EUB0002515a SLC5A2; type: functional, HEK293; parameters: mode of action Inhibitor, recommended concentration 1 uM
[6] = molecular target: Thyroid hormone receptor beta (Homo sapiens, UniProt P10828); experiment: Affinity On-target Cellular interaction: (Reporter gene assay (HEK293T cells)) EUB0002355a THRB; type: functional, cell-based, HEK-293T; parameters: mode of action Antagonist, recommended concentration 3 uM
[7] = molecular target: T3, Peroxisome proliferator-activated receptor delta (Homo sapiens, UniProt Q03181); experiment: Affinity On-target Cellular interaction: (Reporter gene assay (HEK293T cells)) EUB0001483aCl PPARD; type: functional, cell-based, HEK-293T; parameters: mode of action Antagonist, recommended concentration 10 uM
T3 sequence (Q03181 whole entry): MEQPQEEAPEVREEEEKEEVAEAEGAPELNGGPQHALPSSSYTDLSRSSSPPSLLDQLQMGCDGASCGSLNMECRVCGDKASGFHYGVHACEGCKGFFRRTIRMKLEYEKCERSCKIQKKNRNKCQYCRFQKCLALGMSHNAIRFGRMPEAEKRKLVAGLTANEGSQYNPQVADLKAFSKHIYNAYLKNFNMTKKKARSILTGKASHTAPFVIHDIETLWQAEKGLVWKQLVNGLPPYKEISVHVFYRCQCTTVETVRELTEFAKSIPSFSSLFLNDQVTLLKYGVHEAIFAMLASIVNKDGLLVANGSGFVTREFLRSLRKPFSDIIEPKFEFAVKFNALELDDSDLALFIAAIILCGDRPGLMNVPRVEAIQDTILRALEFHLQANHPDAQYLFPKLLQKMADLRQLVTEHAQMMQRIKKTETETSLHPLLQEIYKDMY

[8] = molecular target: Poly [ADP-ribose] polymerase 1 (Homo sapiens, UniProt P09874); experiment: Affinity On-target Cellular interaction: (Inhibition of H2O2 induced PAR formation in Capan-1 cells) EUB0002633aCl PARP1; type: functional, cell-based; parameters: mode of action Inhibitor, recommended concentration 1 uM
[9] = molecular target: Bile acid receptor (Homo sapiens, UniProt Q96RI1); experiment: Affinity On-target Cellular interaction: (Reporter gene assay (HEK293T cells)) EUB0001168a NR1H4; type: functional, cell-based, HEK-293T; parameters: mode of action Agonist, recommended concentration 1 uM
[10] = molecular target: Monoacylglycerol lipase ABHD6 (Homo sapiens, UniProt Q9BV23)
[11] = molecular target: Sodium- and chloride-dependent glycine transporter 1 (Homo sapiens, UniProt P48067); experiment: Affinity On-target Cellular interaction: (Inhibition of [14C]glycine uptake in human neuroblastoma cells transfected with SLC6A9) EUB0002626aCl SLC6A9; type: functional, cell-based, BE(2)-C; parameters: mode of action Inhibitor, recommended concentration 1 uM
[12] = molecular target: T4, Oxysterols receptor LXR-beta (Homo sapiens, UniProt P55055); experiment: Affinity On-target Cellular interaction: (Reporter gene assay (HEK293T cells)) EUB0001482aCl NR1H2; type: functional, cell-based, HEK-293T; parameters: mode of action Agonist, recommended concentration 10 uM
T4 sequence (P55055 whole entry): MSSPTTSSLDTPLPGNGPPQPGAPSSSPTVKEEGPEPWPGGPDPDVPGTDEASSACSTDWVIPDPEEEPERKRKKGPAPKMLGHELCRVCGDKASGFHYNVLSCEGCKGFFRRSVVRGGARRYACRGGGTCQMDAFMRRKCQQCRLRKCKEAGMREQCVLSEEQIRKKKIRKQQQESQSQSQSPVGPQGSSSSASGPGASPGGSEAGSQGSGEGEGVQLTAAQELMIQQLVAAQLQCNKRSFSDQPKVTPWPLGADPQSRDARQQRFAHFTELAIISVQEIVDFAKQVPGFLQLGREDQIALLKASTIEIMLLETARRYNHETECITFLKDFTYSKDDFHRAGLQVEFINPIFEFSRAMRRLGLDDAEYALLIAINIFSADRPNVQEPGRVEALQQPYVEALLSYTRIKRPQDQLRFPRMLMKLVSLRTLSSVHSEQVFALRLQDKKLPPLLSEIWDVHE

[13] = molecular target: T5, Oxysterols receptor LXR-alpha (Homo sapiens, UniProt Q13133); experiment: Affinity On-target Cellular interaction: (Reporter gene assay (HEK293T cells)) EUB0001482aCl NR1H3; type: functional, cell-based, HEK-293T; parameters: mode of action Agonist, recommended concentration 10 uM
T5 sequence (Q13133 whole entry): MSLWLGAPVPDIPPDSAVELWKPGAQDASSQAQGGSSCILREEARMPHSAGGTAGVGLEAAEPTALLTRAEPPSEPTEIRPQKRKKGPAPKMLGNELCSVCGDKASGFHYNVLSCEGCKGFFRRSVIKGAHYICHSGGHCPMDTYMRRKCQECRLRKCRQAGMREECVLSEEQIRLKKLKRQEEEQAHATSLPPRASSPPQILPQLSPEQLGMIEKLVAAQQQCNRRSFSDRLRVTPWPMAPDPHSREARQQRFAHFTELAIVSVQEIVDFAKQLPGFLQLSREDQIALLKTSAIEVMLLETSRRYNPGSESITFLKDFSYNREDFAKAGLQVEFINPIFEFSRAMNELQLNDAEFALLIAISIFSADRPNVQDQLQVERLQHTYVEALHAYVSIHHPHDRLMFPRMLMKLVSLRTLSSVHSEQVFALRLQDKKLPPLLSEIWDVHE

[14] = molecular target: T6, Nuclear receptor ROR-gamma (Homo sapiens, UniProt P51449)
T6 sequence (P51449 whole entry): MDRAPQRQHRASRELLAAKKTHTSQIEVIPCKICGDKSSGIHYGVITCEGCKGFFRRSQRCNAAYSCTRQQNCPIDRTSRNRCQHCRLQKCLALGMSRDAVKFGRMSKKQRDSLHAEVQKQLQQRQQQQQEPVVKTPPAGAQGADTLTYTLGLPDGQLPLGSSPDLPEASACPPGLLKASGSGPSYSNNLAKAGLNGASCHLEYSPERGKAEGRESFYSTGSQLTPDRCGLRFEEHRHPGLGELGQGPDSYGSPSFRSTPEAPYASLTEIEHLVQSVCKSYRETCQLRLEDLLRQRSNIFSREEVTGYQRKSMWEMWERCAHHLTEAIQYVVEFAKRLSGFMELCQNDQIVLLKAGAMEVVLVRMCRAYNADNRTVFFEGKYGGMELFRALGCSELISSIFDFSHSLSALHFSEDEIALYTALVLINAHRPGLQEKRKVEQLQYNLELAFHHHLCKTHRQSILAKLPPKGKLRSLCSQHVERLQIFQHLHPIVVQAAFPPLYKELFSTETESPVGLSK

T1 sequence (Q695T7 whole entry): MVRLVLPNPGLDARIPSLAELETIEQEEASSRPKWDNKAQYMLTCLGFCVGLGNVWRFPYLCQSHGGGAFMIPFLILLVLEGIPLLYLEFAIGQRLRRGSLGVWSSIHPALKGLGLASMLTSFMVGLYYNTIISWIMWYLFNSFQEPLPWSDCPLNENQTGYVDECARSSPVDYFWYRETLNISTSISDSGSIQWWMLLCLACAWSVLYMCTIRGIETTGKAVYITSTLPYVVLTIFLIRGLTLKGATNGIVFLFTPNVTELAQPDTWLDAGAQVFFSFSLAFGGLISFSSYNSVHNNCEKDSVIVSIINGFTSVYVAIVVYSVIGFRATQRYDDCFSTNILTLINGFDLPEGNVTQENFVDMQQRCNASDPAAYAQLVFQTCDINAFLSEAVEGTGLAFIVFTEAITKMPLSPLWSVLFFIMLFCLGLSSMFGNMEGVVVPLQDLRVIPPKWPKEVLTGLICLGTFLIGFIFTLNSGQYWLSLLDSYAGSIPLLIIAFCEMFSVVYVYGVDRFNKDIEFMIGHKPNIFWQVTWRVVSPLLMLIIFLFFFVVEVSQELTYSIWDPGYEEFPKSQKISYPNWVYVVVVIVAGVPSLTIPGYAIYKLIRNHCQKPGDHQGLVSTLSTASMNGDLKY
Monoacylglycerol lipase ABHD6, sequence (Q9BV23 whole entry): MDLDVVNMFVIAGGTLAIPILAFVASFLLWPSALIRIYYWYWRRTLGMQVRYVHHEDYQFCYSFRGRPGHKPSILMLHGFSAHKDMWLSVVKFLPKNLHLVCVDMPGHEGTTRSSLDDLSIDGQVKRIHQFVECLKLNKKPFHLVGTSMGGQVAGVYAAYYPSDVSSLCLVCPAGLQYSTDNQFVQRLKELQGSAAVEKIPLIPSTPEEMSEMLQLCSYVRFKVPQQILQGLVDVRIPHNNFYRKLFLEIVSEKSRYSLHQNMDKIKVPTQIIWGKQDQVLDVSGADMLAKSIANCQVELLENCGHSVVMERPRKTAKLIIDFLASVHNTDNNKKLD
Triacylglycerol hydrolase DDHD2, sequence (O94830 whole entry): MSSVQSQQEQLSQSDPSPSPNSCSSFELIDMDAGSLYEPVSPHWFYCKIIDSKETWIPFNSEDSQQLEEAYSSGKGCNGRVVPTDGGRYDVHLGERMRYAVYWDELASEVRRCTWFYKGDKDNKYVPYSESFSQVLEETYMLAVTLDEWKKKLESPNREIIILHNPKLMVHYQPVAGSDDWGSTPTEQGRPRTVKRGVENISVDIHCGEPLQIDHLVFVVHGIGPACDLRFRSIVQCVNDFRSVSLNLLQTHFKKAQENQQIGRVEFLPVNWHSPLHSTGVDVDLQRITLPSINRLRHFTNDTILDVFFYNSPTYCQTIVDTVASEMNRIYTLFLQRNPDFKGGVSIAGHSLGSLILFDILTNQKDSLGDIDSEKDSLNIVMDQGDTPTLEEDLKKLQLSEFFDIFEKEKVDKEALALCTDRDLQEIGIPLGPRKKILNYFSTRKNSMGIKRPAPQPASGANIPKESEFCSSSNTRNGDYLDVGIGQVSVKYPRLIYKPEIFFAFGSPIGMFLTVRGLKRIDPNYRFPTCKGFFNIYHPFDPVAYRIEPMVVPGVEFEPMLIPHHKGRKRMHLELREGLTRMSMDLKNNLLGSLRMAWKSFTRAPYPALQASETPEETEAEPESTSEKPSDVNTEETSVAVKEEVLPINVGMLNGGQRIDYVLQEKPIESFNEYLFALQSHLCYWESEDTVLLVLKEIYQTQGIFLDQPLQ
Sodium- and chloride-dependent glycine transporter 1, sequence (P48067 whole entry): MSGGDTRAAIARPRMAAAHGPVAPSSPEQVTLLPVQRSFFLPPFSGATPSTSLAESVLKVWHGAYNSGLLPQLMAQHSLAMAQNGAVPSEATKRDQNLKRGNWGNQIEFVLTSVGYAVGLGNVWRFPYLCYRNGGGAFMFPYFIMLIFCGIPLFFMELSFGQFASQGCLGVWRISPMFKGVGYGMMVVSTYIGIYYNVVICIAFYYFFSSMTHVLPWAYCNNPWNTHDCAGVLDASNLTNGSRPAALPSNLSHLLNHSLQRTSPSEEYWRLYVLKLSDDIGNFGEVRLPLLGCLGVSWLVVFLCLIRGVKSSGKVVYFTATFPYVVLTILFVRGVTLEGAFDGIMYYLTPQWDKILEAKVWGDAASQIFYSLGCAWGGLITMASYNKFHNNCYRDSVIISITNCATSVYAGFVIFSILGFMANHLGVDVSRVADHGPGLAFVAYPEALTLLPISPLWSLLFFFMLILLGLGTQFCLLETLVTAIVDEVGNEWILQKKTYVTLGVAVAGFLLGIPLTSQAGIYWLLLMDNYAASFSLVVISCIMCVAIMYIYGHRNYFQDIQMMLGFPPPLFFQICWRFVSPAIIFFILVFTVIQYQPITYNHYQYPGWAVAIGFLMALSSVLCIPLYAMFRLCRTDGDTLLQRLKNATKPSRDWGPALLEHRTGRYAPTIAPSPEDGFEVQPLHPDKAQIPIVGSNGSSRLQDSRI
Poly [ADP-ribose] polymerase 1, sequence (P09874 whole entry): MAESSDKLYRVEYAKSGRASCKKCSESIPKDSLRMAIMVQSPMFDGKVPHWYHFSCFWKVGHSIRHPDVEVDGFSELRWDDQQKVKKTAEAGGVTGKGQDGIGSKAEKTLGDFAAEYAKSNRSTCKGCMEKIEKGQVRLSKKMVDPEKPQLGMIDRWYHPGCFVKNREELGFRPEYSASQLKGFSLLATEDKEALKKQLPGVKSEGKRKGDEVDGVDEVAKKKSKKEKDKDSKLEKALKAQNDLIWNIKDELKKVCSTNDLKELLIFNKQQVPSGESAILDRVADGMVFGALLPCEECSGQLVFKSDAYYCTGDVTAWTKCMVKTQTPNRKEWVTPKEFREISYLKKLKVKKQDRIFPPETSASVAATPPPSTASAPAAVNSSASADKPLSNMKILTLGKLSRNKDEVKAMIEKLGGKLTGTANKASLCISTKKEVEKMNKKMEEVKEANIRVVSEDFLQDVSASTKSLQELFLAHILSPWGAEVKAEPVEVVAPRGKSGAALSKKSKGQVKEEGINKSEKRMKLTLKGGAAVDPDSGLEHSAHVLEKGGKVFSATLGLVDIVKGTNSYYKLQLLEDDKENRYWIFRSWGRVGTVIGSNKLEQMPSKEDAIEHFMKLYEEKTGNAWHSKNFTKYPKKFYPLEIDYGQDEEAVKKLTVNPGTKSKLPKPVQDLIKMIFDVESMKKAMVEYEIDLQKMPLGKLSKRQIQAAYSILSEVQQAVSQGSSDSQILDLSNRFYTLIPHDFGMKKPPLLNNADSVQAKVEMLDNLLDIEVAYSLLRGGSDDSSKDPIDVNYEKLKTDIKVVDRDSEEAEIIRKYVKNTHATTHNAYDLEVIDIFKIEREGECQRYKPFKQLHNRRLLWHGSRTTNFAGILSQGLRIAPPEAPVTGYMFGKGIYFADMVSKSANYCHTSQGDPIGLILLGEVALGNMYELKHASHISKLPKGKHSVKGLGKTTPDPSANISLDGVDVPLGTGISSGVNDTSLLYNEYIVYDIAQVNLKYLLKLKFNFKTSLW
Sodium/glucose cotransporter 2, sequence (P31639 whole entry): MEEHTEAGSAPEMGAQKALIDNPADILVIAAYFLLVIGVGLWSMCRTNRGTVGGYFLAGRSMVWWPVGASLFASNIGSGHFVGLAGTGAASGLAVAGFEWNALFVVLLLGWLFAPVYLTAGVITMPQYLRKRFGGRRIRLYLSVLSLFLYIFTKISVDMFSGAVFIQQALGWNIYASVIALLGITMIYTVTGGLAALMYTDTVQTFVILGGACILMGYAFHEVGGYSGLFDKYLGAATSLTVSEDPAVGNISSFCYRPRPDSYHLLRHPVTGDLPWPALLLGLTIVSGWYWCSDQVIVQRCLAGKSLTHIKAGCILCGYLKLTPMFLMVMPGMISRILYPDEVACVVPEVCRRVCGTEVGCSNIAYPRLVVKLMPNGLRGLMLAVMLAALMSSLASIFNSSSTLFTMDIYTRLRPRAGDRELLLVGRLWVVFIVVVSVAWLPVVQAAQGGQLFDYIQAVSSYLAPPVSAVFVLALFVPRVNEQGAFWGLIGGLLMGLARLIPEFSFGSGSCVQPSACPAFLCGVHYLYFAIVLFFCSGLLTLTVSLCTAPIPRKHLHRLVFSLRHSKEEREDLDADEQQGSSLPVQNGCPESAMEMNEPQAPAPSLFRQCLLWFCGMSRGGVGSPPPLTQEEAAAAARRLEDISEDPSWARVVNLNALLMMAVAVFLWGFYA
Thyroid hormone receptor beta, sequence (P10828 whole entry): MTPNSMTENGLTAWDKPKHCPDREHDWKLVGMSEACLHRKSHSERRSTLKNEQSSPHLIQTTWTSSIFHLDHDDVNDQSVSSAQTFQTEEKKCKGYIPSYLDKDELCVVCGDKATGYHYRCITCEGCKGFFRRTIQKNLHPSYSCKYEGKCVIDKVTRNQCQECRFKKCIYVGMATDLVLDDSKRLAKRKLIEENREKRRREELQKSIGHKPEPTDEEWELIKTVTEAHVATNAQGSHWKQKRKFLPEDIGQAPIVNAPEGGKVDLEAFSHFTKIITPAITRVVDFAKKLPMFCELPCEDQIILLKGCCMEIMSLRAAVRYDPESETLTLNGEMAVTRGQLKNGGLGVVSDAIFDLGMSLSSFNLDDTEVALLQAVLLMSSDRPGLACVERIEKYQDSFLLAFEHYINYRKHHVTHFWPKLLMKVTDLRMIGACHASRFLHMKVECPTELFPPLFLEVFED
Bile acid receptor, sequence (Q96RI1 whole entry): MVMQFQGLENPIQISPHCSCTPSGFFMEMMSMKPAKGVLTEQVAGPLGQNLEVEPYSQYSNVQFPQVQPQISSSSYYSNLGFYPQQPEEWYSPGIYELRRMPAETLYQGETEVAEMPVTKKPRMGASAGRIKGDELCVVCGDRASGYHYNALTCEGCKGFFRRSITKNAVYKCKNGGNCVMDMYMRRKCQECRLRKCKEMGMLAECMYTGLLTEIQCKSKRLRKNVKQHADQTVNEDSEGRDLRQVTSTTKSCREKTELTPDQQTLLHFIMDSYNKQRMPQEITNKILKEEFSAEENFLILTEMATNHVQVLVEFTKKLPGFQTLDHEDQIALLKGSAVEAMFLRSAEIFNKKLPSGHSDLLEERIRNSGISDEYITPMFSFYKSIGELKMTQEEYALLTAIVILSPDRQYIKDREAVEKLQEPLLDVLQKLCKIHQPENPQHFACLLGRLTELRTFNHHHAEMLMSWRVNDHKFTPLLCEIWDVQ

SMILES: CCNC(=O)/C=C/c1cccc(Br)c1 [CINROMIDE]
- IC50 [1]: 370 nM
- IC50 [2]: 280 nM

SMILES: COc1cc(O)c(C(CC(=O)N2C[C@H](C)C[C@H](C)C2)c2ccc3c(c2)OCO3)c(OC)c1 (some centres undefined)
- IC50 [4]: 1300 nM

SMILES: OC[C@H]1O[C@@H](c2ccc(Cl)c(Cc3ccc(OCCOC4CC4)cc3)c2)[C@H](O)[C@@H](O)[C@@H]1O [BEXAGLIFLOZIN]
- IC50 [5]: 2 nM

SMILES: Cc1oc2ccccc2c1Cc1cc(I)c(OCC(=O)O)c(I)c1
- IC50 [6]: 2000 nM

SMILES: CN1CCN(c2ccc(/C=C(\C#N)c3ccccc3Br)cc2)CC1
- IC50 [7]: 1800 nM

SMILES: O=C(O)c1ccnc(N2CC(O)(c3ccc(OCc4c(-c5c(Cl)cccc5Cl)noc4C4CC4)cc3Cl)C2)c1 [CILOFEXOR]
- EC50 [9]: 40 nM

SMILES: O=C(c1cccc(-c2ccc(-c3cn(C(=O)N4CCCCC4c4ccccc4)nn3)cc2)c1)N1CCCCC1 (centres undefined)
- IC50 [10]: 0.21 nM

SMILES: CN(CCOc1ccc(-c2ccc3c(c2)OCO3)cc1C(C)(C)C)CC(=O)O
- IC50 [11]: 15.8 nM

The remaining lines, values ahead:

- IC50 [3]: 3.6 nM
SMILES: O=C(N(CCc1ccccc1)C1CCCCC1)n1ncc(-c2ccc(OC(F)(F)F)cc2)n1

- IC50 [8]: 69.9 nM
SMILES: CNCc1ccc(-c2cc3cc(F)cc(C(N)=O)c3o2)cc1

- EC50 [12]: 2900 nM
- EC50 [13]: 3300 nM
SMILES: C[C@H](CCOc1cccc(CC(=O)O)c1)N(Cc1cccc(C(F)(F)F)c1Cl)CC(c1ccccc1)c1ccccc1

- EC50 [14]: 2000 nM
SMILES: O=C(Nc1ccc(C(O)(C(F)(F)F)C(F)(F)F)cc1)c1ccc(C(F)(F)F)cc1
